Data reported in patent US7618626B2, “Combination treatment for non-hematologic malignancies” (Pfizer Inc, priority 2004, dated 2009).
Read-outs that look alike come from different tables or passages of the source.

B1: 2.13.2: fully human anti-IGF-1R monoclonal antibody; hybridoma ATCC PTA-2788 (antibody)
heavy: EVQLLESGGGLVQPGGSLRLSCTASGFTFSSYAMNWVRQAPGKGLEWVSAISGSGGTTFYADSVKGRFTISRDNSRTTLYLQMNSLRAEDTAVYYCAKDLGWSDSYYYYYGMDVWGQGTTVTVSSASTKGPSVFPLAPCSRSTSESTAALGCLVKDYFPEPVTVSWNSGALTSGVHTFPAVLQSSGLYSLSSVVTVPSSNFGTQTYTCNVDHKPSNTKVDKTVERKCCVECPPCPAPPVAGPSVFLFPPKPKDTLMISRTPEVTCVVVDVSHEDPEVQFNWYVDGVEVHNAKTKPREEQFNSTFRVVSVLTVVHQDWLNGKEYKCKVSNKGLPAPIEKTISKTKGQPREPQVYTLPPSREEMTKNQVSLTCLVKGFYPSDIAVEWESNGQPENNYKTTPPMLDSDGSFFLYSKLTVDKSRWQQGNVFSCSVMHEALHNHYTQKSLSLSPGK
light: DIQMTQFPSSLSASVGDRVTITCRASQGIRNDLGWYQQKPGKAPKRLIYAASRLHRGVPSRFSGSGSGTEFTLTISSLQPEDFATYYCLQHNSYPCSFGQGTKLEIKRTVAAPSVFIFPPSDEQLKSGTASVVCLLNNFYPREAKVQWKVDNALQSGNSQESVTEQDSKDSTYSLSSTLTLSKADYEKHKVYACEVTHQGLSSPVTKSFNRGEC

Key:
[1] = tested on: hormone-receptor-positive breast cancer; conditions: cited from earlier work
IGF-1R = target: T1, IGF-1R (Homo sapiens, UniProt P08069); experiment: IGF-1R phosphotyrosine signal in 3T3-IGF-1R tumors; type: in vivo; conditions: FIG. 4
T1 construct: expressed in transfected cells; host or cells: NIH-3T3 (mouse fibroblast) transfectant, grown as tumors in athymic mice

[2] = tested on: tumors of the transfectant IGF-1R over-expressing NIH-3T3 cell line; experiment: 3T3-IGF-1R tumor growth in vivo (athymic mice, intraperitoneal administration); conditions: FIG. 5
Protocol: When incubated with cells, fully human monoclonal antibodies that are highly specific and potent inhibitors of IGF-1-induced receptor autophosphorylation induced down-regulation of IGF-1R by receptor internalization. […] The serum concentration of anti-IGF-1R antibodies that led to 50% growth inhibition was 20 μg/ml at Day 1, and 13 μg/ml at Day 9. Similar anti-tumor studies were extended to human tumor xenograft models. As a single agent, anti-IGF-1R antibodies inhibited the growth of several xenograft models including breast, lung and colorectal carcinomas.

Molecule | reduction of recurrence ([1]; post-menopausal women) | reduction of recurrence ([1]; pre-menopausal women) | IGF-1R phosphotyrosine signal in 3T3-IGF-1R tumors (IGF-1R) | 3T3-IGF-1R tumor growth in vivo [2]
CC/C(=C(\c1ccccc1)c1ccc(OCCN(C)C)cc1)c1ccccc1 [Tamoxifen] | 40-50% | 30-50% | – | –
B1 | – | – | reduce IGF-1R phosphotyrosine signal | inhibits 3T3-IGF-1R tumor growth in vivo
